Assay results from US20210024499A1, “OXIDIZED BIS(3-INDOLYL)METHANES AND USES THEREOF” (Sanford Burnam Prebys Medical Discovery Institute, priority 2018, published 2021).

Key:
Type in all cases: cell-based
MDA-MB-231 cells = test: PARP cleavage assay (Western blotting), MDA-MB-231; settings: 6 hours
From the text: Compound 1a had no effect under the same conditions (FIG. 1A). […] Compound 1a, 28a, 47a, 48a, 73a, 39a, 70a, 103a, 89a and 88a had no effect under the same conditions (FIG. 3B-C).

[1] = system: mTOR markers p-S6 and p-4EBP1; test: mTOR inhibition: expression of mTOR markers; settings: MDA-MB-231 cells, 1 μM, 6 hours
HCT116 cancer cells = test: Cell viability (MTT) assay, HCT116; settings: Homo sapiens, HCT-116; inhibiting the growth of HCT116 cancer cells, cell viability assay (Table 5)
Protocol: (§1) Cell viability was analyzed by using a colorimetric 3-(4,5-dimethylthiazol-[…]2-yl)-2,5-diphenyletetrazolium Bromide (MTT) assay that determines mitochondrial dehydrogenase activities in the living cells with a colorimetric method. Cells treated with test compounds were incubated with MTT and their effect on the viability of the cells was assayed by the ability of treated cells to reduce the yellow tetrazolium dye MTT to its insoluble formazan, which has a purple color. […]

MDA-MB-231 cancer cells = test: Cell viability (MTT) assay, MDA-MB-231; settings: Homo sapiens; inhibiting the growth of MDA-MB-231 cancer cells, cell viability assay (Table 6)
Protocol: as §1

IC50 (HCT116 cancer cells) [nM] | IC50 (MDA-MB-231 cancer cells) [nM] | SMILES | PARP cleavage (MDA-MB-231 cells; 1 μM) | expression levels of mTOR markers p-S6 and p-4EBP1 [1] | PARP cleavage (MDA-MB-231 cells; 0.5 μM)
– | – | Fc1ccc2[nH]cc([C+](c3ccc(C(F)(F)F)cc3)c3c[nH]c4ccc(F)cc34)c2c1 [Compound 10, Bis(5-fluoro-1H-indol-3-yl)(4-(trifluoromethyl)phenyl)methylium methanesulfonate] | effectively induce PARP cleavage | reduced the expression levels | –
– | – | Cn1cc([C+](c2ccc(C(F)(F)F)cc2)c2cn(C)c3ccccc23)c2ccccc21 [Compound 11, Bis(1-methyl-1H-indol-3-yl)(4-(trifluoromethyl)phenyl)methylium methanesulfonate] | effectively induce PARP cleavage | reduced the expression levels | –
– | – | Cc1ccc2[nH]cc([C+](c3ccc(C(F)(F)F)cc3)c3c[nH]c4ccc(C)cc34)c2c1 [Compound 15, Bis(5-methyl-1H-indol-3-yl)(4-(trifluoromethyl)phenyl)methylium methanesulfonate] | effectively induce PARP cleavage | reduced the expression levels | –
– | – | Cc1ccc2c([C+](c3ccc(C(F)(F)F)cc3)c3c[nH]c4cc(C)ccc34)c[nH]c2c1 [Compound 18, Bis(6-methyl-1H-indol-3-yl)(4-(trifluoromethyl)phenyl)methylium chloride] | effectively induce PARP cleavage | reduced the expression levels | –
– | – | Fc1ccc2c([C+](c3ccc(C(F)(F)F)cc3)c3c[nH]c4cc(F)ccc34)c[nH]c2c1 [Compound 21, Bis(6-fluoro-1H-indol-3-yl)(4-(trifluoromethyl)phenyl)methylium methanesulfonate] | effectively induce PARP cleavage | reduced the expression levels | –
– | – | Cl.Fc1ccc2c([C+](c3ccc(C(F)(F)F)cc3)c3c[nH]c4cc(F)ccc34)c[nH]c2c1 [Compound 22, Bis(6-fluoro-1H-indol-3-yl)(4-(trifluoromethyl)phenyl)methylium chloride] | effectively induce PARP cleavage | reduced the expression levels | –
– | – | FC(F)(F)c1ccc([C+](c2c[nH]c3cc(Cl)ccc23)c2c[nH]c3cc(Cl)ccc23)cc1 [Compound 24, Bis(6-chloro-1H-indol-3-yl)(4-(trifluoromethyl)phenyl)methylium methanesulfonate] | effectively induce PARP cleavage | reduced the expression levels | –
500 to 5000 | 500 to 5000 | FC(F)(F)Oc1ccc([C+](c2c[nH]c3ccccc23)c2c[nH]c3ccccc23)cc1.[Cl-] [Compound 39, Bis(1H-indol-3-yl)(4-(trifluoromethoxy)phenyl)methylium chloride] | effectively induce PARP cleavage | reduced the expression levels | effectively induced PARP cleavage
– | – | Fc1cccc2[nH]cc([C+](c3ccc(C(F)(F)F)cc3)c3c[nH]c4cccc(F)c34)c12.[Cl-] [Compound 43, Bis(4-fluoro-1H-indol-3-yl)(4-(trifluoromethyl)phenyl)methylium chloride] | effectively induce PARP cleavage | reduced the expression levels | –
– | – | Oc1ccc2[nH]cc([C+](c3ccc(C(F)(F)F)cc3)c3c[nH]c4ccc(O)cc34)c2c1.[Cl-] [Compound 46, Bis(5-hydroxy-1H-indol-3-yl)(4-(trifluoromethyl)phenyl)methylium chloride] | effectively induce PARP cleavage | reduced the expression levels | –
< 500 | < 500 | CCn1cc([C+](c2ccc(C(F)(F)F)cc2)c2c[nH]c3ccccc23)c2ccccc21.[Cl-] [Compound 47, (1-Ethyl-1H-indol-3-yl)(1H-indol-3-yl)(4-(trifluoromethyl)phenyl)methylium chloride] | – | – | effectively induced PARP cleavage
< 500 | < 500 | CCCn1cc([C+](c2ccc(C(F)(F)F)cc2)c2c[nH]c3ccccc23)c2ccccc21.[Cl-] [Compound 48, (1-Propyl-1H-indol-3-yl)(1H-indol-3-yl)(4-(trifluoromethyl)phenyl)methylium chloride] | effectively induce PARP cleavage | reduced the expression levels | effectively induced PARP cleavage
– | – | CCCCn1cc([C+](c2ccc(C(F)(F)F)cc2)c2c[nH]c3ccccc23)c2ccccc21.[Cl-] [Compound 49, (1-Butyl-1H-indol-3-yl)(1H-indol-3-yl)(4-(trifluoromethyl)phenyl)methylium chloride] | effectively induce PARP cleavage | reduced the expression levels | –
– | – | Cc1ccc2c([C+](c3ccc(C(F)(F)F)cc3)c3c[nH]c4ccccc34)c[nH]c2c1.[Cl-] [Compound 54, (6-Methyl-1H-indol-3-yl)(1H-indol-3-yl)(4-(trifluoromethyl)phenyl)methylium chloride] | effectively induce PARP cleavage | reduced the expression levels | –
– | – | Cc1cccc2c([C+](c3ccc(C(F)(F)F)cc3)c3c[nH]c4ccccc34)c[nH]c12.[Cl-] [Compound 55, (7-Methyl-1H-indol-3-yl)(1H-indol-3-yl)(4-(trifluoromethyl)phenyl)methylium chloride] | effectively induce PARP cleavage | reduced the expression levels | –
– | – | Cc1ccc2[nH]cc([C+](c3ccc(C(F)(F)F)cc3)c3c[nH]c4ccccc34)c2c1.[Cl-] [Compound 57, (5-Methyl-1H-indol-3-yl)(1H-indol-3-yl)(4-(trifluoromethyl)phenyl)methylium chloride] | effectively induce PARP cleavage | reduced the expression levels | –
– | – | Fc1cccc2c([C+](c3ccc(C(F)(F)F)cc3)c3c[nH]c4c(F)cccc34)c[nH]c12.[Cl-] [Compound 62, Bis(7-fluoro-1H-indol-3-yl)(4-(trifluoromethyl)phenyl)methylium chloride] | effectively induce PARP cleavage | reduced the expression levels | –
– | – | FC(F)(F)c1ccc([C+](c2c[nH]c3cc(Cl)ccc23)c2c[nH]c3cc(Cl)ccc23)cc1.[Cl-] [Compound 67, Bis(6-chloro-1H-indol-3-yl)(4-(trifluoromethyl)phenyl)methylium chloride] | effectively induce PARP cleavage | reduced the expression levels | –
< 500 | < 500 | Fc1ccc2c([C+](c3ccc(C(F)(F)F)cc3)c3c[nH]c4ccccc34)c[nH]c2c1.[Cl-] [Compound 70, (6-Fluoro-1H-indol-3-yl)(1H-indol-3-yl)(4-(trifluoromethyl)phenyl)methylium chloride] | – | – | effectively induced PARP cleavage
< 500 | < 500 | Fc1cccc2c([C+](c3ccc(C(F)(F)F)cc3)c3c[nH]c4ccccc34)c[nH]c12.[Cl-] [Compound 71, (7-Fluoro-1H-indol-3-yl)(1H-indol-3-yl)(4-(trifluoromethyl)phenyl)methylium chloride] | effectively induce PARP cleavage | reduced the expression levels | –
– | – | Fc1cccc2[nH]cc([C+](c3ccc(C(F)(F)F)cc3)c3c[nH]c4ccccc34)c12.[Cl-] [Compound 72, (4-Fluoro-1H-indol-3-yl)(1H-indol-3-yl)(4-(trifluoromethyl)phenyl)methylium chloride] | effectively induce PARP cleavage | reduced the expression levels | –
– | – | FC(F)(F)c1ccc([C+](c2cn(-c3ccccc3)c3ccccc23)c2cn(-c3ccccc3)c3ccccc23)cc1.[Cl-] [Compound 74, Bis(1-phenyl-1H-indol-3-yl)(4-(trifluoromethyl)phenyl)methylium chloride] | effectively induce PARP cleavage | reduced the expression levels | –
< 500 | < 500 | Cn1cc([C+](c2ccc(C(F)(F)F)cc2)c2c[nH]c3ccccc23)c2ccc(F)cc21.[Cl-] [Compound 88, (6-Fluoro-1-methyl-1H-indol-3-yl)(1H-indol-3-yl)(4-(trifluoromethyl)phenyl)-methylium chloride] | – | – | effectively induced PARP cleavage
< 500 | < 500 | Cn1cc([C+](c2ccc(C(F)(F)F)cc2)c2c[nH]c3c(F)cccc23)c2ccccc21.[Cl-] [Compound 89, (7-Fluoro-1H-indol-3-yl)(1-methyl-1H-indol-3-yl)(4-(trifluoromethyl)phenyl)-methylium chloride] | – | – | effectively induced PARP cleavage
< 500 | < 500 | Fc1cc([C+](c2c[nH]c3ccccc23)c2c[nH]c3ccccc23)ccc1C(F)(F)F.[Cl-] [Compound 103, (3-Fluoro-4-(trifluoromethyl)phenyl)di(1H-indol-3-yl)methylium chloride] | – | – | effectively induced PARP cleavage
